Like-named read-outs stand apart in the source and are kept apart here.
System: L1210 leukemia
Assay: Lymphoid Leukemia L1210, survival of tumored mice
Assay type: in vivo, CD2F1 mice
Conditions: for response vs control in vivo at 37.5 mg/kg: 37.5 mg/kg i.p.
Procedure: The efficacy of the compounds of this invention against the transplanted mouse tumors was evaluated in test systems currently in use at the National Cancer Institute for the detection and assessment of anticancer activity. […] J. Cancer, 17, 129-142, (1981); Venditti, J. M., Seminars in Oncology, 8 (4) (1981); Goldin, A. and J. M. Venditti, in Recent Results in Cancer Research, 70, S. K. Carter and Y. Sakurai, Eds., Springer-Verlag, Berlin/Heidelberg, 1980].
The animals used in this test were CD2 F1 mice, all males weighing a minimum of 18 g and all within a 4 g weight range at the start of the test. The test group consisted of six mice. The tumor was implanted in each of the test mice by the intraperitoneal injection of 0.1 ml of diluted ascitic fluid containing 10^5 cells drawn from a mouse with L1210 leukemia. The test compounds were suspended in hydroxypropylcellulose or saline with Tween® 80 surfactant or dissolved in saline and injected intraperitoneally, at various doses, once daily for nine consecutive days starting on day one relative to the day of tumor inoculation (day 0). The control mice received injections of saline or hydroxypropylcellulose vehicle only. The mice were weighed and survivors were recorded on a regular basis for 30 days. The median survival time and the ratio of the median survival time for the treated (T) and control (C) mice was calculated. […] Drug effectiveness was assessed on the basis of the survival time. Results were expressed as a percentage of the control survival time (Median Survival Time: T/C ×100%). The criterion for effectiveness was determined by: T/C×100≥125 percent.

[1] = Mus musculus, L1210, ip, 720 h, 100 mg/kg i.p., read-out: L1210 Leukemia % T/C (median survival time)
[2] = Mus musculus, L1210, ip, 720 h, 50 mg/kg i.p., nonoptimal Q1DX9 instead of Q3DX9, read-out: L1210 Leukemia % T/C (median survival time)
[3] = Mus musculus, L1210, ip, 720 h, 25 mg/kg i.p., read-out: L1210 Leukemia % T/C (median survival time)
[4] = Mus musculus, L1210, ip, 720 h, 175 mg/kg i.p., read-out: L1210 Leukemia % T/C (median survival time)
[5] = Mus musculus, L1210, ip, 720 h, 50 mg/kg i.p., read-out: L1210 Leukemia % T/C (median survival time)
[6] = Mus musculus, L1210, ip, 720 h, 75 mg/kg i.p., nonoptimal Q1DX9 instead of Q3DX9, read-out: L1210 Leukemia % T/C (median survival time)
[7] = Mus musculus, L1210, ip, 720 h, 150 mg/kg i.p., read-out: L1210 Leukemia % T/C (median survival time)
[8] = Mus musculus, L1210, ip, 720 h, nonoptimal Q1DX9 instead of Q3DX9, read-out: L1210 Leukemia % T/C (median survival time)
[9] = Mus musculus, L1210, ip, 720 h, read-out: L1210 Leukemia % T/C (median survival time)

## Cc1cc(-c2ccccc2)ccc1-c1nc2ccc(F)cc2c(C(=O)O)c1C [Example 68]
[1]
  response vs control in vivo at 100 mg/kg: 162%

## Cc1cc(-c2ccccc2)ccc1-c1nc2ccc(F)cc2c(C(=O)O)c1C [Example 158]
100 mg/kg i.p.
  L1210 Leukemia % T/C (median survival time): 148%

## CCc1c(-c2ccc(C3CCCCC3)cc2)nc2ccc(F)cc2c1C(=O)O [Example 100]
[2]
  response vs control in vivo at 50 mg/kg: 103%

## Cc1c(-c2ccc(-c3ccc(Br)cc3)cc2)nc2ccc(F)cc2c1C(=O)O [Example 183]
Mus musculus, L1210, ip, 720 h, 22.5 mg/kg i.p., read-out: L1210 Leukemia % T/C (median survival time)
  response vs control in vivo at 22.5 mg/kg: 208%

## Cc1c(-c2ccc(Oc3ccccc3)cc2)nc2ccc(C(F)(F)F)cc2c1C(=O)O [Example 147]
Mus musculus, L1210, ip, 720 h, 18 mg/kg i.p., read-out: L1210 Leukemia % T/C (median survival time)
  response vs control in vivo at 18 mg/kg: 132%

## Cc1c(-c2ccc(Cc3ccccc3)cc2)nc2ccc(Cl)cc2c1C(=O)O [Example 22]
[1]
  response vs control in vivo at 100 mg/kg: 135%

## Cc1c(-c2ccc(-c3ccc(Br)cc3)cc2)nc2ccc(Cl)cc2c1C(=O)O [Example 117]
[3]
  response vs control in vivo at 25 mg/kg: 163%

## Cc1c(-c2ccc([S+]([O-])c3ccccc3)cc2)nc2ccc(F)cc2c1C(=O)O (stereo not shown) [Example 34]
Mus musculus, L1210, ip, 720 h, 400 mg/kg i.p., read-out: L1210 Leukemia % T/C (median survival time)
  response vs control in vivo at 400 mg/kg: 170%

## Cc1ccc(-c2ccc(-c3nc4ccc(F)cc4c(C(=O)O)c3C)cc2)cc1C [Example 129]
[1]
  response vs control in vivo at 100 mg/kg: 154%

## Cc1ccc(-c2ccc(-c3nc4ccc(F)cc4c(C(=O)O)c3C)cc2)cc1Cl [Example 128]
[3]
  response vs control in vivo at 25 mg/kg: 135%

## Cc1c(-c2ccc(-c3ccc(Br)cc3)cc2)nc2ccc(Cl)cc2c1C(=O)O [Example 175]
Mus musculus, L1210, ip, 720 h, 12.5 mg/kg i.p., read-out: L1210 Leukemia % T/C (median survival time)
  response vs control in vivo at 12.5 mg/kg: 156%

## Cc1c(-c2ccc(Oc3ccc([N+](=O)[O-])cc3)cc2)nc2ccc(F)cc2c1C(=O)O [Example 86, 6-Fluoro-3-methyl-2-(4-nitrophenoxyphenyl)-4-quinolinecarboxylic acid]
[4]
  response vs control in vivo at 175 mg/kg: 153%

## Cc1c(-c2ccc(Oc3ccc([N+](=O)[O-])cc3)cc2)nc2ccc(F)cc2c1C(=O)O [Example 184]
175 mg/kg i.p.
  L1210 Leukemia % T/C (median survival time): 153%

## Cc1c(-c2ccc(-c3ccc(Br)cc3)cc2)nc2ccc(Cl)cc2c1C(=O)O [Example 27]
[5]
  response vs control in vivo at 50 mg/kg: 155%

## COc1c(-c2ccc(-c3ccc(C(F)(F)F)cc3)cc2)nc2ccc(F)cc2c1C(=O)O [Example 32]
[4]
  response vs control in vivo at 175 mg/kg: 153%

## Cc1c(-c2ccc(-c3ccccc3)cc2)nc2cc(Cl)c(F)cc2c1C(=O)O [Example 151]
75 mg/kg i.p.
  L1210 Leukemia % T/C (median survival time): 144%

## Cc1c(-c2ccc(-c3ccccc3F)cc2)nc2ccc(F)cc2c1C(=O)OCCCN(C)C [Example 199]
[3]
  response vs control in vivo at 25 mg/kg: 153%

## Cc1c(-c2ccc(Oc3ccc(F)cc3)cc2)nc2ccc(F)cc2c1C(=O)O [Example 35]
150 mg/kg i.p.
  L1210 Leukemia % T/C (median survival time): 204%

## Cc1c(-c2ccc([S+]([O-])c3ccccc3)cc2)nc2ccc(F)cc2c1C(=O)O (stereo not shown) [Example 124]
Mus musculus, L1210, ip, 720 h, 360 mg/kg i.p., read-out: L1210 Leukemia % T/C (median survival time)
  response vs control in vivo at 360 mg/kg: 184%

## Cc1cc2c(C(=O)O)c(C)c(-c3ccc(Oc4ccccc4)cc3)nc2cc1Cl [Example 149]
[6]
  response vs control in vivo at 75 mg/kg: 107%

## Cc1ccc2nc(-c3ccc(-c4ccccc4)cc3)c(C)c(C(=O)O)c2c1Cl [Example 166]
[5]
  response vs control in vivo at 50 mg/kg: 156%

## Cc1c(-c2ccc(-c3ccccc3)cc2)nc2ccc(F)c(Cl)c2c1C(=O)O [Example 164, Sodium 2-(4-Biphenylyl)-5-chloro-6-fluoro-3-methylquinoline-4-carboxylate]
Mus musculus, L1210, ip, 720 h, read-out: L1210 Leukemia % T/C (median survival time), 22.5 mg/kg i.p.
  response vs control in vivo at 22.5 mg/kg: 234%

## O=C(O)c1cc(-c2ccc(Oc3ccc(F)cc3)cc2)nc2ccc(F)cc12 [Example 75]
[7]
  response vs control in vivo at 150 mg/kg: 145%

## Cc1c(-c2ccc(-c3ccc(F)cc3)cc2)nc2ccc(Cl)cc2c1C(=O)O [Example 113]
25 mg/kg i.p.
  L1210 Leukemia % T/C (median survival time): 166%

## COc1c(-c2ccc(-c3ccccc3)cc2)nc2ccc(F)cc2c1C(=O)O [Example 37]
50 mg/kg i.p.
  L1210 Leukemia % T/C (median survival time): 155%

## Cc1c(-c2ccc(-c3ccccc3)cc2)nc2c(Br)cc(Br)cc2c1C(=O)O [Example 150]
[8]
  response vs control in vivo at 37.5 mg/kg: 105%

## Cc1c(-c2ccc(-c3ccc(Cl)c(Cl)c3)cc2)nc2ccc(F)cc2c1C(=O)O [Example 126]
[9]
  response vs control in vivo at 37.5 mg/kg: 150%

## Cc1c(-c2ccc(-c3ccc(F)cc3)cc2)nc2cc(Cl)c(F)cc2c1C(=O)O [Example 144]
[8]
  response vs control in vivo at 37.5 mg/kg: 123%

## Cc1c(-c2ccc(C3CCCCC3)cc2)nc2ccc(Br)cc2c1C(=O)O [Example 135]
400 mg/kg i.p.
  L1210 Leukemia % T/C (median survival time): 160%

## Cc1c(-c2ccc(-c3ccc(Cl)c(Cl)c3)cc2)nc2ccc(F)cc2c1C(=O)O [Example 36]
Mus musculus, L1210, ip, 720 h, 75 mg/kg i.p., read-out: L1210 Leukemia % T/C (median survival time)
  response vs control in vivo at 75 mg/kg: 185%

## Cc1c(-c2ccc(Oc3ccccc3)cc2)nc2ccc(Cl)cc2c1C(=O)O [Example 110]
[3]
  response vs control in vivo at 25 mg/kg: 135%

## Cc1c(-c2ccc(-c3ccccc3)cc2)nc2ccc(I)cc2c1C(=O)O [Example 185]
[5]
  response vs control in vivo at 50 mg/kg: 175%

## O=C(O)c1cc(-c2ccc(-c3ccccc3)cc2)nc2ccc(F)cc12 [Example 123]
Mus musculus, L1210, ip, 720 h, 21.9 mg/kg i.p., read-out: L1210 Leukemia % T/C (median survival time)
  response vs control in vivo at 21.9 mg/kg: 145%

## Cc1c(-c2ccc(-c3ccccc3)cc2)nc2cc(Cl)cc(Cl)c2c1C(=O)O [Example 165]
[5]
  response vs control in vivo at 50 mg/kg: 128%

## Cc1c(-c2ccc(-c3ccccc3F)cc2)nc2ccc(Cl)cc2c1C(=O)O [Example 160]
[3]
  response vs control in vivo at 25 mg/kg: 174%

## Cc1c(-c2ccc(Oc3ccccc3)cc2)nc2ccc(Br)cc2c1C(=O)O [Example 143]
[9]
  response vs control in vivo at 37.5 mg/kg: 132%

## Cc1c(-c2ccc(-c3ccccc3)cc2)nc2ccc(I)cc2c1C(=O)O [Example 71]
[3]
  response vs control in vivo at 25 mg/kg: 163%

## CCC(C)c1ccc(-c2nc3ccc(F)cc3c(C(=O)O)c2C)cc1 (stereo not shown) [Example 99]
[2]
  response vs control in vivo at 50 mg/kg: 101%

## Cc1c(-c2ccc(-c3ccccc3)cc2)nc2ccc(C(F)(F)F)cc2c1C(=O)O [Example 146]
[9]
  response vs control in vivo at 37.5 mg/kg: 164%

## COc1c(-c2ccc(-c3ccccc3)cc2)nc2ccc(F)cc2c1C(=O)O [Example 127]
50 mg/kg i.p.
  L1210 Leukemia % T/C (median survival time): 193%

## CSc1ccc2nc(-c3ccc(-c4ccccc4)cc3)c(C)c(C(=O)O)c2c1 [Example 76, 2-(4-Biphenyl)-3-methyl-6-methylthio-4-quinoline carboxylic acid]
Mus musculus, L1210, ip, 720 h, 200 mg/kg i.p., read-out: L1210 Leukemia % T/C (median survival time)
  response vs control in vivo at 200 mg/kg: 179%

## Cc1c(-c2ccc(-c3ccc(F)cc3F)cc2)nc2ccc(F)cc2c1C(=O)O [Example 74]
[5]
  response vs control in vivo at 50 mg/kg: 104%

## Cc1ccc2c(C(=O)O)c(C)c(-c3ccc(-c4ccccc4)cc3)nc2c1 [Example 55]
[7]
  response vs control in vivo at 150 mg/kg: 156%

## Cc1c(-c2ccc(-c3ccccc3)cc2)nc2ccc(F)cc2c1C(=O)OCCN(C)C [Example 196]
[5]
  response vs control in vivo at 50 mg/kg: 205%

## Cc1c(-c2ccc(-c3ccccc3)cc2)nc2cccc(Cl)c2c1C(=O)O [Example 163]
Mus musculus, L1210, ip, 720 h, 43.8 mg/kg i.p., read-out: L1210 Leukemia % T/C (median survival time)
  response vs control in vivo at 43.8 mg/kg: 180%

## Cc1c(-c2ccc(-c3ccccc3F)cc2)nc2ccc(F)cc2c1C(=O)OCCCN(C)C [Example 200]
25 mg/kg i.p.
  L1210 Leukemia % T/C (median survival time): 140%

## O=C(O)c1cc(-c2ccc(-c3ccccc3)cc2)nc2ccc(F)cc12 [Example 182]
Mus musculus, L1210, ip, 720 h, 46 mg/kg i.p., read-out: L1210 Leukemia % T/C (median survival time)
  response vs control in vivo at 46 mg/kg: 168%

## Cc1c(-c2ccc(SCc3ccccc3)cc2)nc2ccc(F)cc2c1C(=O)O [Example 116]
[6]
  response vs control in vivo at 75 mg/kg: 102%

## Cc1c(-c2ccc(Oc3ccccc3)cc2)nc2ccc(Cl)cc2c1C(=O)O [Example 172]
[1]
  response vs control in vivo at 100 mg/kg: 151%
